Assay [1] addresses T1, human Hsp90α NTD (Homo sapiens, UniProt P07900).
T1 construct: Production and purification of recombinant Hsp90α NTD have been described previously; made in house
The assay can be described thus: fluorescence-based thermal shift assay (FTSA), binding to Hsp90. Particulars: for Kd: FTSA. On the procedure: Production and purification of recombinant Hsp90α NTD have been described previously. The molecular weight of the protein has been confirmed by high-resolution mass spectrometry, purity by SDS-PAGE, and the concentration was determined by UV-VIS spectrophotometry at 280 nm. The synthesis, chemical structure determination, and purity of compounds 1-7 have been previously described.
Compound binding to Hsp90 was determined by the fluorescence-based thermal shift assay (FTSA) which determines the thermal stability of the free and ligand-bound protein [61, 62, 63]. The stabilization efficiency is directly related to the ligand-binding affinity. The experiments were carried out with Corbett Rotor-Gene 6000 (QIAGEN Rotor-Gene Q) spectrofluorimeter (using excitation 365 ± 20 nm and detection at 460 ± 15 nm). Protein solutions in the presence of various concentrations of a compound were heated from 25 to 95 °C at a rate of 1 °C/min. Protein unfolding was monitored by measuring the fluorescence of 8-anilino-1-naphthalenesulfonate (ANS) dye at added 50 μM concentration. Increasing concentration of a compound shifted the protein denaturation temperature increasingly upwards depending on the binding affinity. Samples contained 5 μM protein, ligand concentration ranging from 0 to 200 μM, […] (pH 7.5) containing […] and 2% DMSO. Protein melting temperatures were determined by fitting the fluorescence curves while the compound dosing curves were simulated as described previously. All experiments were repeated at least twice.

Assay [2] addresses T2, human DNA topoisomerase IIα (Homo sapiens, UniProt P11388).
T2 construct: purchased Inspiralis
Description: human DNA topoisomerase IIα DNA relaxation assay (Inspiralis). In kind it is biochemical. Particulars: for IC50: DNA relaxation assay, read-out: Human TopoII IC50; for inhibition of TopoII (in words): concentrations up to 100 μM. The method, then:
Inhibitory activities were determined in an assay from Inspiralis on streptavidin-coated 96-well microtitre plates from Thermo Scientific Pierce. […] After washing off the unbound oligonucleotide, the enzyme assay was performed. […] Reaction solutions were incubated at 37 °C for 30 min. After that, the TF buffer (50 mM NaOAc, 50 mM NaCl, and 50 mM MgCl2, pH 5.0) was added to terminate the enzymatic reaction. After additional incubation for 30 min at RT, during which biotin–oligonucleotide–plasmid triplex was formed, the unbound plasmid was washed off using TF buffer, and Diamond Dye in T10 buffer (10 mM Tris·HCl, 1 mM EDTA, pH 8.0) was added. […] Initial screening was done at 100 or 10 μM concentrations of inhibitors. […] GraphPad Prism 6 software was used to calculate the IC50 values. The results are reported as the average value of three independent measurements.

Assay [3] has as its target T1, human Hsp90α NTD. Description: fluorescence-based thermal shift assay (FTSA), binding to Hsp90. The conditions noted are these: concentrations up to 100 μM.
For assay [4], the target named is T3, E. coli DNA gyrase (Escherichia coli, UniProt P0AES6).
T3 construct: purchased Inspiralis
The conditions noted are these: cited from earlier work.

Assay [5] deals with T3, E. coli DNA gyrase. Description: DNA supercoiling assay (Inspiralis). In kind it is biochemical. On the procedure: The DNA supercoiling assay from Inspiralis for the determination of IC50 values was performed according to previously reported procedures.
Assay [6] addresses T1, human Hsp90α NTD. Particulars: cited from earlier work.
A further assay relates to human TopoII. Set-up: method as in PMID 2537141. Particulars: cited from earlier work.
For assay [7], the system named is Hsp90 C-terminal domain (CTD). Set-up: method as in PMID 10945979, PMID 10655441. Particulars: cited from earlier work.
The mark [8] stands for this setting: DNA supercoiling assay, read-out: E. coli DNA gyrase IC50.

Where two headings read alike, the source gives them in different places.

T2 sequence (P11388 whole entry): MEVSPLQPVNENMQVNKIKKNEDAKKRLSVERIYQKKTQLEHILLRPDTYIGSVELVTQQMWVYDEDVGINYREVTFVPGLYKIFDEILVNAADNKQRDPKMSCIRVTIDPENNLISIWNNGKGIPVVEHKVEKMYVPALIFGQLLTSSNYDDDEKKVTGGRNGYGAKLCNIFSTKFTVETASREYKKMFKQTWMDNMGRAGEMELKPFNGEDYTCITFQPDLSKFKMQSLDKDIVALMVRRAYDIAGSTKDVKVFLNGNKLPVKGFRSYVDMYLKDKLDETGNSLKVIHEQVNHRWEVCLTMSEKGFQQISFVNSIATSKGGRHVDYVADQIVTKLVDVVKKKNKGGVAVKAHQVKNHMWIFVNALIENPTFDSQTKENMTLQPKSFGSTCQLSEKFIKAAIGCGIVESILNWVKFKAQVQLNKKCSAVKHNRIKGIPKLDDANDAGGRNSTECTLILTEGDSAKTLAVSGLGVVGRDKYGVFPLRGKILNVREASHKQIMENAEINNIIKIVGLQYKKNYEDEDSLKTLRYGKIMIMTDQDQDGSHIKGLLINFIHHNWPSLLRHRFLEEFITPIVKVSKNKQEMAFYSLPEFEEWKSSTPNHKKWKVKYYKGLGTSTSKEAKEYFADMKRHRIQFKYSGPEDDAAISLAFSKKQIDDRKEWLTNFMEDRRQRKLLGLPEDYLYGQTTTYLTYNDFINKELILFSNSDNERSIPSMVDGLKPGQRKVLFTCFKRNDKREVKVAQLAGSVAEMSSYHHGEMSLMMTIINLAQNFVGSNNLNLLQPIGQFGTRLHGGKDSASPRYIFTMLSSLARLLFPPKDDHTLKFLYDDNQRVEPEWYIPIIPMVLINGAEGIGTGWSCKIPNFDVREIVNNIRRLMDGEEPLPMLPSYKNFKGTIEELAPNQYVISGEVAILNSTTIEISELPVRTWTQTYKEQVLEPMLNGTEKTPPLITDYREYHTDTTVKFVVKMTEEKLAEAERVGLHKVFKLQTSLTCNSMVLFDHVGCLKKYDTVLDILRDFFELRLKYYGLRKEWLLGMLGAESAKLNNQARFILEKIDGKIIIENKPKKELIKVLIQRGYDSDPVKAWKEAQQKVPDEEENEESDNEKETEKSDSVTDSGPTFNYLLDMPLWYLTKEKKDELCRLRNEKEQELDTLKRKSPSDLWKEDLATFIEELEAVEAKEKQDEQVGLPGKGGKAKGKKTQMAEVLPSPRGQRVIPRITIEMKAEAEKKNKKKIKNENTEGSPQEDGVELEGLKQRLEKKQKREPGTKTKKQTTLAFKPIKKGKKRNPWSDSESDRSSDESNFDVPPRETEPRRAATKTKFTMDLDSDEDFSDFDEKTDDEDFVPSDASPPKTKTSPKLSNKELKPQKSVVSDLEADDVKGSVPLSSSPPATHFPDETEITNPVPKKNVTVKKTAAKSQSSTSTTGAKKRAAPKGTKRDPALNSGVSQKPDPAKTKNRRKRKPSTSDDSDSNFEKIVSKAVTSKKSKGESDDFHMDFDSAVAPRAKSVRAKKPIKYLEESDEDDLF

Usually Kd stands for a measure of binding affinity in units of concentration. By IC50 is commonly meant the concentration that inhibits the measured activity by half. Turning to `O=C(O)C(=O)Nc1ccc2nc(NC(=O)c3cc(Cl)c(Cl)[nH]3)sc2c1` [Compound 1], on human Hsp90α NTD [1], the “activity at Hsp90 in vitro (in words)” value was “inactive” and the dissociation constant Kd was greater than 100 µM. Further, in assay [2], the “activity at TopoII in vitro (in words)” value was “inactive”, the IC50 is greater than 100 µM and the “inhibition of TopoII (in words)” value was “devoid of activity”. On human Hsp90α NTD [3], the “binding to Hsp90α NTD (in words)” value is on record as “devoid of activity”.
Regarding `Cc1[nH]c(C(=O)N[C@H]2CCc3nc(NC(=O)CC(=O)O)sc3C2)c(Br)c1Br` [Compound 2], at human Hsp90α NTD [1], the “activity at Hsp90 in vitro (in words)” value was “inactive” and the dissociation constant (Kd) was greater than 100 µM. Also, in assay [2], the “activity at TopoII in vitro (in words)” value was “inactive”, the 50% inhibitory concentration (IC50) was greater than 100 µM and the “inhibition of TopoII (in words)” value is recorded as “devoid of activity”. The “binding to Hsp90α NTD (in words)” value on human Hsp90α NTD [3] is “devoid of activity”. The 50% inhibitory concentration (IC50) on E. coli DNA gyrase [4] (DNA supercoiling assay, read-out: Escherichia coli DNA gyrase IC50) was less than 100 nM. Besides, the IC50 at E. coli DNA gyrase [4] (read-out: E. coli DNA gyrase IC50) is 20 nM.
Consider `COc1ccc(-c2snnc2-c2cc(Cl)c(O)cc2O)cc1` [Compound 3], for which, in assay [2], the “activity at TopoII in vitro (in words)” value is “no inhibition” and the IC50 was greater than 100 µM. Besides, at E. coli DNA gyrase [5], the IC50 is greater than 100 µM and the “activity at GyrB / DNA gyrase in vitro (in words)” value (“activity at GyrB / DNA gyrase” below) is recorded as “no inhibition”.
`CC(C)Cc1cc(-c2nnsc2-c2ccccc2)c(O)cc1O` [Compound 4]: the “activity at TopoII in vitro (in words)” value in assay [2] was “no inhibition”. The IC50 (in assay [2]; on E. coli DNA gyrase [5] (setting [8])) was greater than 100 µM throughout. On E. coli DNA gyrase [5], the “activity at GyrB / DNA gyrase” value is recorded as “no inhibition”. The dissociation constant Kd at human Hsp90α NTD [6] was 6.6 nM.
As to `O=c1nc(SCc2cc(F)cc(C(F)(F)F)c2)nc(SCc2ccccc2F)[nH]1` [Compound 5], on human Hsp90α NTD [1], the “activity at Hsp90 in vitro (in words)” value is “inactive” and the equilibrium dissociation constant (Kd) is greater than 100 µM. Besides, at E. coli DNA gyrase [5], the “activity at GyrB / DNA gyrase” value is “inactive”. For the same compound, on E. coli DNA gyrase [5] (setting [8]), the IC50 was greater than 100 µM.
For `O=c1nc(SCc2cc(F)cc(C(F)(F)F)c2)nc(SCc2ccc(Cl)cc2)[nH]1` [Compound 6], on human Hsp90α NTD [1], the “activity at Hsp90 in vitro (in words)” value was “inactive” and the Kd is greater than 100 µM. Also, the “activity at GyrB / DNA gyrase” value at E. coli DNA gyrase [5] is “inactive”. For the same compound, the half-inhibitory concentration (IC50) at E. coli DNA gyrase [5] (setting [8]) was greater than 100 µM.
On to `NS(=O)(=O)c1c(F)c(F)c(SCCO)c(F)c1NC1CCCCCCC1` [Compound 7], for which, on human Hsp90α NTD [1], the “activity at Hsp90 in vitro (in words)” value was “inactive” and the equilibrium dissociation constant (Kd) is greater than 100 µM. In addition, in assay [2], the “activity at TopoII in vitro (in words)” value is “inactive” and the IC50 was greater than 100 µM. Moreover, at E. coli DNA gyrase [5], the “activity at GyrB / DNA gyrase” value was “inactive”. On E. coli DNA gyrase [5] (setting [8]), the 50% inhibitory concentration (IC50) was greater than 100 µM.
`CO[C@@H]1[C@@H](OC(N)=O)[C@@H](O)[C@H](Oc2ccc3c(O)c(NC(=O)c4ccc(O)c(CC=C(C)C)c4)c(=O)oc3c2C)OC1(C)C` [novobiocin]: the “inhibition of human TopoII (in words)” value in the assay with human TopoII is on record as “inhibit”. Further, the “binding to allosteric binding site at Hsp90 CTD (in words)” value in assay [7] is given as “weakly bind”.

These data come from paper PMC8400042, “Selective DNA Gyrase Inhibitors: Multi-Target in Silico Profiling with 3D-Pharmacophores” (Pharmaceuticals, 2021).
